Values joined by “and” are separate entries in the source; they are usually repeats but may differ in a detail not shown here. Equal values may be shown once. “Also recorded” adds a separate entry of the source.
Assays:
[1] = tested on: L. major intramacrophage amastigotes; assay: Intramacrophage antileishmanial growth inhibition assay; assay type: cell-based, Leishmania major; conditions: for inhibition at 10 µM: Leishmania major, L. major strain IR‐173 (as headed) intramacrophage amastigotes, read-out: Anti‐amastigote growth inhibition (%); for host cell and parasite death in L. major anti‐amastigote screening: 2 mM of compound, L. major only
Procedure: (§1) A modified resazurin assay[47, 48] and the two Leishmania strains were also used to assess the efficacy of synthesised compounds against intramacrophage parasites.
(§2) Human monocytic leukemia (THP‐1) cells were cultured in RPMI 1640 medium with L‐glutamine (Sigma Aldrich) supplemented with, 1 % penicillin/streptomycin solution (Lonza), 10 % fetal bovine serum (FBS; Thermofisher Scientific) and 2 g/L sodium bicarbonate (Sigma Aldrich). The cells were maintained in a humidified environment at 37 °C and 5 % CO2.
(§3) For the intramacrophage assay, a 500 000 cells/mL THP‐1 cell suspension was prepared, 25 ng/mL phorbol 12‐myristate 13‐acetate (PMA) added and the suspension seeded in 96 well plates (Nunc, Thermofisher Scientific) at 200 μL/well. Cell‐free growth medium was included as the blank. The plates were incubated for 48 hours in a humidified environment at 37 °C and 5 % CO2 to encourage the differentiation of the suspended cells to adherent macrophages.
(§4) To eliminate non‐adherent cells after the PMA treatment, the plates were carefully washed once with warm PBS. Then, a premade promastigote suspension ([…]) was added. The suspension consisted of stationary phase promastigotes in THP‐1 cell growth medium, with a multiplicity of infection (MOI) of 30 : 1. Parasite‐free medium was also added to selected THP‐1 cell‐containing wells to serve as parasite blank. The plates were thoroughly rinsed four times with warm PBS to get rid of extracellular parasites after being cultured for 24 hours to encourage macrophage infection. The cells were then treated with 160 μL of growth medium and 40 μL of either solvent (parasite blank and negative control with parasites) or 40 μL of compound solutions. For a dual‐point activity screening, 10 μM and 2 mM of compound were prepared in separate plates. Amphothericin B (10 μM) served as the standard antileishmanial drug. The plates were incubated for 72 hours in a humidified environment at 37 °C and 5 % CO2.
(§5) For the plates treated with 10 μM of compound, any serum and extracellular promastigotes that remained were carefully removed from the wells by rinsing with warm PBS. The wells were then treated with 20 μL of 0.05 % sodium dodecyl sulphate (SDS; Sigma Aldrich) in PBS for 30 sec to lyse the macrophages. Lysis was terminated with the addition of 180 μL promastigote growth medium with 10 % FBS. For the resazurin assay, 10 μL of resazurin solution (0.025 % in PBS) was added to each well and the plates were further incubated at 37 °C in for 72 hours in the dark to measure amastigote recovery to proliferative promastigotes.
Any remaining extracellular promastigotes were afterwards carefully removed from the wells by rinsing with warm PBS. The wells were then treated with 50 μL of resazurin solution (0.01 % in PBS) and the plates were further incubated at 37 °C for 4 hours in the dark to assess host cell viability.
(§6) A Thermofisher Scientific's GO Multiscan plate reader was used to measure absorbance at 570 nm and 600 nm. SkanIt 4.0 Research Edition software was used to perform the data analysis for every biological replicate. Background absorbance (600 nm) was subtracted from the 570 nm absorbance data and the mean absorbance was computed.
(§7) For the activity screening, the following formula was used to determine growth inhibition percentage: Growthinhibition%=100-[(ΔAbssample-ΔAbsblank)/(ΔAbsnegcontrol-ΔAbsblank)X100]

Vero cells = assay: Cytotoxicity resazurin assay; assay type: cell-based; conditions: Chlorocebus sabaeus, 48 hours, ±standard deviation, maximum concentration 2 mM
Procedure: The cytotoxicity of the synthesised compounds was evaluated using the resazurin assay. The assay involves live cells converting oxidized blue resazurin dye to pink, highly fluorescent resorufin through irreversible enzymatic reduction.[44] This non‐toxic reagent is a useful instrument for determining drug toxicity and cell growth.
Dulbecco's modified Eagle's medium (DMEM) with high glucose (Separations) supplemented with 1 % L‐glutamine, non‐essential amino acids, and penicillin‐streptomycin (Sigma Aldrich), and 10 % fetal bovine serum (Thermofisher Scientific) was used to cultivate Vero cells. The cells were kept at 37 °C and 5 % CO2 in a humidified environment. For the assay, 96 well plates were prepared by pipetting 100 μL of cell suspension (60 000 cells/mL) per well and incubating the plates for 24 hours. The cells were then treated with seven two‐fold concentration dilutions of: (1) 1 μM emetine dihydrochloride (Sigma Aldrich) solution (positive control); (2) 2 mM experimental compound solutions. Cell‐free growth medium was included as a blank. The treated plates were incubated for 48 hours.
To initiate the resazurin assay, 50 μL of sterile‐filtered resazurin sodium salt (Sigma Aldrich) solution (0.01 % in phosphate‐buffered saline (PBS)) was added to the prepared plates and then incubated for 2 hours. A Thermofisher Scientific's GO Multiscan plate reader was used to measure the absorbance at 570 and 600 nm. SkanIt 4.0 Research Edition software was used to perform the data analysis for every biological replicate. After subtracting background absorbance (600 nm) from the 570 nm absorbance data, the mean absorbance was computed, and the percentage of viable cells was estimated using the formula below: Cellviability%=(ΔAbssample-ΔAbsblank)/(ΔAbsnegcontrol-ΔAbsblank)X100
GraphPad Prism 5 was used to calculate the IC50 and Z‐score for each compound's biological replicate. The mean IC50 of the biological replicates and standard deviation (SD) was calculated to determine the final IC50 of each compound.

Vero = tested on: Vero; parameters: method as in PMID 33491807; conditions: cited from earlier work
[2] = tested on: L. donovani strain 9515 intramacrophage amastigotes; assay: Intramacrophage antileishmanial growth inhibition assay; assay type: cell-based; conditions: Leishmania donovani, read-out: Anti‐amastigote growth inhibition (%)
Procedure: as §1, §2, §3, §4, §5, §6, §7

[3] = tested on: L. major (strain NIH S (MHOM/SN/74/Seidman)) promastigotes; assay: Antipromastigote resazurin assay; assay type: cell-based, Leishmania major; conditions: for IC50 / inhibition at 10 µM: Leishmania major; for IC50: promastigotes, maximum concentration 2 mM, ±standard deviation; for inhibition at 10 µM: L. major strain IR‐173 (as headed) promastigotes, read-out: Antipromastigote growth inhibition (%)
[4] = tested on: L. donovani 1S promastigotes; parameters: method as in PMID 33491807; conditions: read-out: L. donovani 1S promas. IC50; cited from earlier work
[5] = tested on: L. donovani strain 1S amastigote; parameters: method as in PMID 33491807; conditions: previous study; cited from earlier work
[6] = tested on: Leishmania donovani (strain 9515 (MHOM/IN/95/9515)) promastigotes; assay: Antipromastigote resazurin assay; assay type: cell-based; conditions: for IC50 / inhibition at 10 µM: Leishmania donovani; for IC50: promastigotes, maximum concentration 2 mM, ±standard deviation, read-out: L. donovani 9515 antipromastigote IC50; for inhibition at 10 µM: L. donovani strain 9515 promastigotes, read-out: Antipromastigote growth inhibition (%)
Procedure: The antipromastigote activity of synthesised compounds was evaluated using a modified method of the resazurin assay[45, 46] against two Leishmania strains.
Leishmania donovani (strain 9515 (MHOM/IN/95/9515)) and L. major (strain NIH S (MHOM/SN/74/Seidman)) promastigotes were cultured in M199 with Hank's salts and 0.68 mM L‐glutamine (Sigma Aldrich) supplemented with 0.0005 % hemin, 0.0001 % biotin, 0.1 mM adenine (Sigma Aldrich), 10 % fetal bovine serum, 50 U/mL Penicillin/Streptomycin solution, 4.2 mM sodium bicarbonate and 25 mM Hepes buffer. The promastigotes were maintained at an adjusted pH of 7.3–7.4 growth medium at 26 °C. […] Amphothericin B (10 μM) served as the standard antileishmanial drug and parasite‐free growth medium was included as the blank. The plates were incubated for 48 hours at 26 °C in humidified environment.
Following the initial incubation, 50 μL of resazurin solution (0.01 % in PBS) was added to each well and the plates underwent further incubation at 26 °C for 24 hours in the dark. A Thermofisher Scientific's GO Multiscan plate reader was used to measure absorbance at 570 nm and 600 nm. SkanIt 4.0 Research Edition software was used to perform the data analysis for every biological replicate. Background absorbance (600 nm) was subtracted from the 570 nm absorbance data and the mean absorbance was computed. The cell viability and data analysis were performed as indicated in the cytotoxicity assay.

Structure (SMILES)	melting point	IC50 [3]	IC50 [6]	inhibition at 10 µM [1]	IC50 (Vero cells)	IC50 (Vero)	inhibition at 10 µM [2]	SI2: Selectivity index=IC50 Vero/L. major antipromastigote IC50 [3]	inhibition at 10 µM [3]	IC50 [4]	activity against L. donovani strain 1S amastigote [5]	SI1: Selectivity index=IC50 Vero/L. donovani 9515 antipromastigote IC50 [6]	inhibition at 10 µM [6]	host cell and parasite death in L. major anti‐amastigote screening [1]
O=S1(=O)NC=Nc2ccccc21 [Compound 1, 2H‐Benzo[e][1,2,4]thiadiazine‐1,1‐dioxide]	223 to 226 °C	861 ± 46.5 µM	612 ± 30.9 µM	0%	323 ± 215 µM	> 100 µM	0%	0.38	0%	< 10 µM and 7.33 µM	sub‐micromolar activity	0.53	10%	–
O=S1(=O)c2ccccc2N=CN1CCO [Compound 2, 2‐(2‐Hydroxyethyl)‐2H‐benzo[e][1,2,4]thiadiazine‐1,1‐dioxide]	167 to 170 °C	–	839 ± 41.9 µM	0%	752 ± 174 µM	–	0%	0.70	0%	–	–	0.90	0%	–
O=S1(=O)c2ccccc2N=CN1CCOc1ccc(Br)cc1 [Compound 10, 2‐[2‐(4‐Bromophenoxy)ethyl]‐2H‐benzo[e][1,2,4]thiadiazine‐1,1‐dioxide]	217 to 220 °C	–	906 ± 62.1 µM	0%	663 ± 24 µM	–	0%	0.47	0%	–	–	0.73	0%	–
CCOCCOCCN1C=Nc2ccccc2S1(=O)=O [Compound 7, 2‐[2‐(2‐Ethoxyethoxy)ethyl]‐2H‐benzo[e][1,2,4]thiadiazine‐1,1‐dioxide]	–	491 ± 28.6 µM	426 ± 34.7 µM	0%	727 ± 61.7 µM	–	0%	1.48	0%	–	–	1.71	0%	both host cell and parasite death; also recorded: killed both parasite and host cell

The next compounds have a lower IC50 [6] than those just listed; values first:

melting point	IC50 [3]	IC50 [6]	Structure (SMILES)	inhibition at 10 µM [1]	IC50 (Vero cells)	IC50 (Vero)	inhibition at 10 µM [2]	SI2: Selectivity index=IC50 Vero/L. major antipromastigote IC50 [3]	inhibition at 10 µM [3]	IC50 [4]	activity against L. donovani strain 1S amastigote [5]	SI1: Selectivity index=IC50 Vero/L. donovani 9515 antipromastigote IC50 [6]	inhibition at 10 µM [6]	host cell and parasite death in L. major anti‐amastigote screening [1]
–	783 ± 408 µM	411 ± 27.9 µM	O=[N+]([O-])c1ccc(OCCN2C=Nc3ccccc3S2(=O)=O)cc1 [Compound 12, 2‐[2‐(4‐Nitrophenoxy)ethyl]‐2H‐benzo[e][1,2,4]thiadiazine‐1,1‐dioxide]	0%	667 ± 58 µM	–	0%	0.85	0%	–	–	1.62	9%	killed both parasite and host cell
–	586 ± 47 µM	333 ± 45.1 µM	CCOCCN1C=Nc2ccccc2S1(=O)=O [Compound 6, 2‐(2‐Ethoxyethyl)‐2H‐benzo[e][1,2,4]thiadiazine‐1,1‐dioxide]	0%	470 ± 225 µM	–	0%	–	0%	–	–	–	2%	–

— publication PMC11741150, “Synthesis and In Vitro Antileishmanial Efficacy of Novel Ethylene Glycol Analogues of Benzothiadiazine‐1,1‐dioxide” (Chemistry & Biodiversity, 2024)
